Measured values reported in patent US20060079453A1, “Hla binding peptides and their uses” (priority 2002, published 2006).
Like-named read-outs stand apart in the source and are kept apart here. No end group written: not given here.

Key:
Experiment in all cases: biochemical
Type in all cases: binding
HLA-DR DRB1*0701 (DR7) = HLA-DR DRB1*0701 (DR7) (Homo sapiens, UniProt P01903+P01911, A100R/A102G/A103Q/D57E/D86V/E43K/F76Y/K127E/L162R/M171V/P40G/Q125H/Q99D/R33Q/R42Y/R54Q/S133A/S66F/T210M/V115G/Y107V/Y59L/Y89S)
HLA-DR DRB1*0901 (DR9) = HLA-DR DRB1*0901 (DR9) (Homo sapiens, UniProt P01903+P01911, A100R/A103E/D57H/D86V/F55Y/F60I/F76Y/I96F/K127E/L162R/M171V/P40D/Q125H/Q99R/R33Q/R42F/S133A/S66N/T210M/V115G/W38K/Y107V/Y59G/Y89S)
HLA-DR DRB1*0802 (DR8) = HLA-DR DRB1*0802 (DR8) (Homo sapiens, UniProt P01903+P01911, A100R/A103L/A169T/F76Y/H45Y/I96F/K41T/L162R/M171V/P40S/Q125H/Q178H/Q39Y/Q99D/R218S/R42G/S66Y/V115G/W38E)
HLA-DR DRB1*0401 (DR4) = HLA-DR DRB1*0401 (DR4) (Homo sapiens, UniProt P01903+P01911, A100K/A169T/F76Y/I96L/K127E/L162R/M171V/N62H/P40V/Q125Y/R42H/S133A/S149N/S66Y/V115G/V209L/W38E)
HLA-DR DRB1*1501 (DR15) = HLA-DR DRB1*1501 (DR15) (Homo sapiens, UniProt P01903+P01911)
HLA-DR DRB1*1302 (DR13) = HLA-DR DRB1*1302 (DR13) (Homo sapiens, UniProt P01903+P01911, A100E/A169T/K41T/L162R/M171V/P40S/Q125H/Q178H/Q39Y/Q99D/R42S/S66N/T262R/V115G/W38E/Y61H)
Chain of HLA-DR DRB1*1302 (DR13) (P01903 26-254 limits assumed, other chains not shown): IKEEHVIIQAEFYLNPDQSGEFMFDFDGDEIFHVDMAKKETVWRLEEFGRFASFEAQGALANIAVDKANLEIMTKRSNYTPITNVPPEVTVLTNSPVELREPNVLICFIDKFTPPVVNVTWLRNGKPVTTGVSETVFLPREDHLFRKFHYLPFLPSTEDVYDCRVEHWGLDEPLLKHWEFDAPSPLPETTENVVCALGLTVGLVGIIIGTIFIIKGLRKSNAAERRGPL

HLA-DR DRB5*0101 (DR51) = HLA-DR DRB5*0101 (DR51) (Homo sapiens, UniProt P01903+Q30154); conditions: DRB5 *0101
HLA-DR DRB1*0101 (DR1) = HLA-DR DRB1*0101 (DR1) (Homo sapiens, UniProt P01903+P01911, A100R/D57E/F55L/F60I/F76Y/I96L/L162R/M171V/P40L/Q125E/R42F/V115G/Y59C)
HLA-DR DRB4*0101 (DR53) = HLA-DR DRB4*0101 (DR53) (Homo sapiens, UniProt P01903+P13762, G164S)
HLA-DR DRB1*0301 (DR3) = HLA-DR DRB1*0301 (DR3) (Homo sapiens, UniProt P01903+P01911, A100K/A102G/A103R/A169T/F55Y/I96L/K41T/L162R/M171V/P40S/Q125H/Q178H/Q39Y/R42S/S66N/T106N/T262R/W38E/Y61H)
Chain of HLA-DR DRB1*0301 (DR3) (P01903 26-254 limits assumed, other chains not shown): as above

Row | Compound | IC50 (HLA-DR DRB1*0701 (DR7); read-out: DRB1 *0701) | IC50 (HLA-DR DRB1*0802 (DR8); read-out: DRB1 *0802) | IC50 (HLA-DR DRB1*0701 (DR7); DRB1 *0701) | IC50 (HLA-DR DRB1*0401 (DR4); DRB1 *0401) | IC50 (HLA-DR DRB1*1501 (DR15); DRBI *1501) | IC50 (HLA-DR DRB1*1302 (DR13); DRBI *1302) | IC50 (HLA-DR DRB5*0101 (DR51)) | IC50 (HLA-DR DRB1*0802 (DR8)) | IC50 (HLA-DR DRB1*0101 (DR1); DRB1 *0101) | IC50 (HLA-DR DRB4*0101 (DR53); DRB4 *0101) | other results
1 | DSSIEGNYTLRVDCT | 14500 nM | > 163000 nM | – | – | – | – | – | – | – | – | IC50 (HLA-DR DRB1*0901 (DR9); read-out: DRB1 *0901): > 187000 nM
2 | FIHFFTWGTMFVPKY | – | – | 489 nM | 273 nM | 2380 nM | 328 nM | 9610 nM | 1700 nM | – | – | –
3 | CC[C@H](C)[C@H](NC(=O)[C@H](Cc1ccc(O)cc1)NC(=O)[C@@H]1CCCN1)C(=O)N[C@@H](CC(C)C)C(=O)N[C@@H](CC(C)C)C(=O)N[C@H](C(=O)N[C@@H](CO)C(=O)N[C@@H](CO)C(=O)N[C@@H](CCCCN)C(=O)N[C@H](C(=O)N[C@@H](CO)C(=O)N[C@H](C(=O)N[C@H](C(=O)N[C@@H](CCCCN)C(=O)N[C@@H](CC(=O)O)C(=O)O)C(C)C)[C@@H](C)O)C(C)C)C(C)C | – | – | – | – | – | – | 32 nM | 12 nM | – | – | IC50 (HLA-DR DRB1*0701 (DR7)): 38 nM; IC50 (HLA-DR DRB1*0401 (DR4)): 64 nM; IC50 (HLA-DR DRB1*1501 (DR15)): 22 nM; IC50 (HLA-DR DRB1*1302 (DR13)): 7.2 nM; IC50 (HLA-DR DRB1*0101 (DR1)): 1.1 nM; IC50 (HLA-DR DRB4*0101 (DR53)): 107 nM
4 | VAQVRGGMVFELANS | 4450 nM | > 98000 nM | – | – | – | – | – | – | – | – | IC50 (HLA-DR DRB1*0401 (DR4); read-out: DRB1 *0401): 662 nM; IC50 (HLA-DR DRB1*0901 (DR9); read-out: DRB1 *0901): 499 nM
5 | YEALIKLLPFSKRIR | – | – | 3580 nM | 1840 nM | 36 nM | 230 nM | 11 nM | 180 nM | 55 nM | 15 nM | –
6 | MTNLAALFPPEGVS | > 125000 nM | 39200 nM | – | – | – | – | – | – | – | – | IC50 (HLA-DR DRB1*0401 (DR4); read-out: DRB1 *0401): > 40000 nM; IC50 (HLA-DR DRB1*0901 (DR9); read-out: DRB1 *0901): 22800 nM; IC50 (HLA-DR DRB1*0101 (DR1); read-out: DRB1 *0101): 24 nM
7 | QKILIKIPVTKNIIT | – | – | 534 nM | 303 nM | 3610 nM | 332 nM | 297 nM | 2240 nM | 993 nM | 953 nM | –
8 | CC[C@H](C)[C@H](NC(=O)[C@H](CCCCN)NC(=O)[C@H](C)NC(=O)[C@@H]1CCCN1C(=O)[C@H](CCC(=O)O)NC(=O)[C@H](CO)NC(=O)[C@H](CC(C)C)NC(=O)[C@H](CCCNC(=N)N)NC(=O)[C@H](CC(C)C)NC(=O)[C@H](CC(C)C)NC(=O)[C@H](CCSC)NC(=O)[C@H](CC(C)C)NC(=O)[C@H](CC(=O)O)NC(=O)[C@@H](N)Cc1c[nH]cn1)C(=O)N[C@H](C(=O)O)[C@@H](C)O | – | – | 109 nM | 3060 nM | – | 0.83 nM | – | 544 nM | 16 nM | 12 nM | IC50 (HLA-DR DRB1*0901 (DR9); DRB1 *0901): 43 nM
9 | FENLVAENVKPPKVD | – | – | 120000 nM | 2370 nM | > 50800 nM | 3030 nM | 62700 nM | > 25000 nM | 56 nM | 9300 nM | –
10 | KPAVYTKVVHYRICWI | 2400 nM | 53 nM | – | – | – | – | – | – | – | – | IC50 (HLA-DR DRB1*0901 (DR9); read-out: DRB1 *0901): 3680 nM; IC50 (HLA-DR DRB1*0101 (DR1); read-out: DRB1 *0101): 5000 nM
11 | LDIYQKLYIKQEEQK | – | – | > 88300 nM | 1490 nM | 47 nM | 4350 nM | 6960 nM | 1200 nM | 2830 nM | 70 nM | –
12 | VLFLQMMNVNLQKQL | – | – | 8440 nM | 30 nM | 8200 nM | 8.6 nM | > 7210 nM | 56800 nM | 6.3 nM | 12 nM | –
13 | MSAMTNLAALFPPEG | 36100 nM | 73900 nM | – | – | – | – | – | – | – | – | IC50 (HLA-DR DRB1*0401 (DR4); read-out: DRB1 *0401): 700 nM; IC50 (HLA-DR DRB1*0901 (DR9); read-out: DRB1 *0901): > 187000 nM
14 | LKELIKVGLPSFENL | – | – | 542 nM | 163 nM | 361 nM | – | 41300 nM | 1490 nM | 99 nM | 110 nM | –
15 | SFLQNPQTSLCCFRK | 7030 nM | 7070 nM | – | – | – | – | – | – | – | – | IC50 (HLA-DR DRB1*0401 (DR4); read-out: DRB1 *0401): 671 nM; IC50 (HLA-DR DRB1*0301 (DR3); read-out: DRB1 *0301): 1830 nM
16 | KCEFQDAYVILLSEKK | – | – | 336 nM | 73 nM | > 47600 nM | > 10300 nM | 20 nM | 489 nM | 14 nM | > 19600 nM | IC50 (HLA-DR DRB1*0301 (DR3)): 5790 nM
17 | TAWTIVRVEILRYFY | 29 nM | 57200 nM | – | – | – | – | – | – | – | – | IC50 (HLA-DR DRB1*0401 (DR4); read-out: DRB1 *0401): 44 nM; IC50 (HLA-DR DRB1*0301 (DR3); read-out: DRB1 *0301): 3000 nM; IC50 (HLA-DR DRB1*0101 (DR1); read-out: DRB1 *0101): 7.8 nM
